According to patent US20220242846A1, “ISOINDOLINONE COMPOUNDS” (Monte Rosa Therapeutics AG, priority 2019, published 2022):

Target: T1, Full length wild-type cereblon CRBN (Homo sapiens, UniProt Q96SW2)
T1 construct: Full length wild-type cereblon CRBN (80.0 nM, 10 μL) was incubated in assay buffer
Assay: Fluorescence polarization (FP) assay indicating cereblon binding
Details: CRBN 80.0 nM, fluorescent probe 5 nM, FP measured after 12 hours; read-out: rFP IC50
Excerpt: Protocol for Fluorescent Polarization Assay
Compound activity was monitored in a fluorescence polarization (FP) homogeneous assay using 1-[5-({2-[2-(2-{[2-(2,6-dioxopiperidin-3-yl)-1,3-dioxo-2,3-dihydro-1H-isoindol-4-yl]oxy}acetamido)ethoxy]ethyl}carbamoyl)pentyl]-3,3-dimethyl-2-[(1E,3E)-5-[(2E)-1,3,3-trimethyl-5-sulfo-2,3-dihydro-1H-indol-2-ylidene]penta-1,3-dien-1-yl]-3H-indol-1-ium-5-sulfonate as a fluorescent probe. Unless otherwise stated, all reagents were purchased from Sigma Aldrich. Enzymatic reactions were conducted in Perkin-Elmer Black 384 well ProxiPlate Plus (catalogue no. 6008269) in 10 μL total volume. Full length wild-type cereblon CRBN (80.0 nM, 10 μL) was incubated in assay buffer containing 20 mM HEPES (pH 8.0), […], 0.5 mM TCEP and 0.05% Tween 20 in the presence or absence of compound (300 nL). Inhibitors were stored as 10 mM DMSO stocks in an inert environment (low humidity, dark, low oxygen, room temperature) using the Storage Pod System. Compounds and DMSO were dispensed using the Echo E5XX (Labcyte Inc. USA) to give concentrations from 300 to 0.937 or 3000 to 9.3 nM in a 12 data point curve. […] Following incubation at room temperature for […], the assay was initiated by dispensing the probe to a final concentration of 5 nM (2.5 nL of a 20 μM stock) using the Echo E5XX. FP was measured after a period of 12 hours using a Pherastar plate reader (BMG Labtech, Germany) exciting at 590 nm and measuring the amount of parallel and perpendicular light at 675 nm. The FP signal was subsequently normalized to the no-compound control (i.e., DMSO). Analysis and IC50 values were derived using Dotmatics (Dotmatics UK) software.

T1 sequence (Q96SW2 whole entry): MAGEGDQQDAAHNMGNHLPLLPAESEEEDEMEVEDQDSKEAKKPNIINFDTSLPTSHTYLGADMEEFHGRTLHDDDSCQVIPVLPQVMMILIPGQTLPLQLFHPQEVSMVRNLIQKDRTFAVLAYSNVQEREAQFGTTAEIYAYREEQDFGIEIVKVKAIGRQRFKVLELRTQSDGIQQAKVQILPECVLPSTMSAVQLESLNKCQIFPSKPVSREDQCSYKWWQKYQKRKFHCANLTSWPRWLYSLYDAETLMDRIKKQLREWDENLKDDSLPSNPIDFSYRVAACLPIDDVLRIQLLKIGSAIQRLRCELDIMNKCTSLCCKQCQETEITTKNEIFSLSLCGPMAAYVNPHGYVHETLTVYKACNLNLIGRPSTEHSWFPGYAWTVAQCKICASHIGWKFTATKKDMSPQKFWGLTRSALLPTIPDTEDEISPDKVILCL

Question: With COc1cc(C)c(Cl)cc1NC(=O)NCc1ccc2c(c1)C(=O)N(C1CCC(=O)NC1=O)C2 (stereo not drawn) [Compound 76] as the molecule, how does the IC50 read?
Answer: 281 nM

Question: For O=C1CCC(N2Cc3ccc(CNC(=O)NCCCc4ccccc4)cc3C2=O)C(=O)N1 (stereo not drawn) [Compound 70], which IC50 is on record?
Answer: 253 nM

Question: O=C1CCC(N2Cc3ccc(CNC(=O)Nc4ccc(F)c(Cl)c4)cc3C2=O)C(=O)N1 (stereo not drawn) [Compound 42] was tested. Which IC50 did it give?
Answer: 589 nM

Question: Which IC50 does the source give for O=C1CCC(N2Cc3ccc(CNC(=O)Nc4ccccc4F)cc3C2=O)C(=O)N1 (stereo not drawn) [Compound 48] here?
Answer: 719 nM

Question: O=C1CCC(N2Cc3ccc(CNC(=O)Nc4ccccc4Cl)cc3C2=O)C(=O)N1 (stereo not drawn) [Compound 4] was tested. Which IC50 did it give?
Answer: 483 nM

Question: With COc1ccc(Cl)cc1NC(=O)NCc1ccc2c(c1)C(=O)N(C1CCC(=O)NC1=O)C2 (stereo not drawn) [Compound 30] as the molecule, how does the IC50 read?
Answer: 580 nM

Test system: Human mammary epithelial cells (HMEC) engineered to express c-myc tagged with EGFP
Assay: 3D spheroid assay, myc-HMEC (CellTiterGlo3D viability)
Type: cell-based
Details: Homo sapiens, HMEC, 120 h, 3D spheroids, 5 days with compound, read-out: Code: EC50 value in the myc-HMEC assay
Experimental: (§1) 3D Spheroid Experiments—HMEC
(§2) Human mammary epithelial cells (HMEC) were engineered to express either c-myc tagged with EGFP or EGFP alone (non myc) (analogous but distinct from Kessler J D et al, Science. 2012 Jan. 20; 335(6066):348-53. doi: 10.1126/science.1212728; Hsu T Y et al, Nature. 2015 Sep. 17; 525(7569):384-8. doi: 10.1038/nature14985). The engineered cells were seeded at 1000 (myc) or 4000 (non myc) cells/well in a 384 ultra-low attachment plate in a total volume of 40 µL, HMEC cell culture media (DMEM/F12+10% HI-FBS+15 mM HEPES+0.5 ug/ml Hydrocortisone+10 ug/ml Insulin+20 ng/ml EGF). Plates were spun at 1200 rpm for 5 minutes at room temperature to ensure that cells have gathered in the middle of the well and incubated at 37° C. for 48 hrs before firing with compounds. On Day 2 (48 h post seeding) cells were imaged (brightfield and EGFP fluorescence) using the Celigo imaging cytometer prior to firing compounds. For primary screens, compounds were added at three concentrations (1.25, 10 and 30 uM) in a volume of 120 nL using the ECHO acoustic dispenser and spun at 2000 rpm for 2 minutes at room temperature before incubating at 37° C. for 5 days. […] On Day 7, prior to measuring cell viability using CellTiterGlo3D, cells were imaged (brightfield and EGFP fluorescence) on the Celigo imaging cytometer. The CellTiterGlo3D reagent is added at 30uL/well and incubated at room temperature for 30mins After 30mins of incubation, luminescence readings were recorded using the Perkin Elmer EnVision reader.

Question: With O=C1CCC(N2Cc3ccc(CNC(=O)NCCCc4ccccc4)cc3C2=O)C(=O)N1 (stereo not drawn) [Compound 70] as the molecule, how does the EC50 read?
Answer: > 2000 nM

Question: How did the EC50 turn out when O=C1CCC(N2Cc3ccc(CNC(=O)Nc4ccc(F)c(Cl)c4)cc3C2=O)C(=O)N1 (stereo not drawn) [Compound 42] was run?
Answer: 400 to 2000 nM

Question: Which EC50 does the source give for O=C1CCC(N2Cc3ccc(CNC(=O)Nc4ccccc4F)cc3C2=O)C(=O)N1 (stereo not drawn) [Compound 48] here?
Answer: > 2000 nM

Question: For O=C1CCC(N2Cc3ccc(CNC(=O)Nc4ccccc4Cl)cc3C2=O)C(=O)N1 (stereo not drawn) [Compound 4], which EC50 is on record?
Answer: > 2000 nM

Question: With COc1ccc(Cl)cc1NC(=O)NCc1ccc2c(c1)C(=O)N(C1CCC(=O)NC1=O)C2 (stereo not drawn) [Compound 30] as the molecule, how does the EC50 read?
Answer: ≤ 400 nM

Same assay, conditions: Homo sapiens, HMEC, 120 h, myc-HMEC 3D spheroids (compounds with code D and E), 5 days, read-out: EC50

Question: How did the EC50 turn out when O=C1CCC(N2Cc3ccc(CNC(=O)Nc4ccc(F)c(Cl)c4)cc3C2=O)C(=O)N1 (stereo not drawn) [Compound 42] was run?
Answer: ≤ 2000 nM

Same assay, conditions: myc-HMEC 3D spheroids (compounds with code D and E), 5 days, read-out: EC50

Question: With O=C1CCC(N2Cc3ccc(CNC(=O)Nc4ccc(F)c(Cl)c4)cc3C2=O)C(=O)N1 (stereo not drawn) [Compound 42] as the molecule, how does the EC50 read?
Answer: 1720 nM

Question: COc1ccc(Cl)cc1NC(=O)NCc1ccc2c(c1)C(=O)N(C1CCC(=O)NC1=O)C2 (stereo not drawn) [Compound 30] was tested. Which EC50 did it give?
Answer: 359 nM

Test system: Human mammary epithelial cells (HMEC) engineered to express EGFP alone (non myc)
Assay: 3D spheroid assay, non myc-HMEC (CellTiterGlo3D viability)
Type: cell-based
Details: 120 h, 3D spheroids, 5 days with compound, read-out: Code: EC50 value in the non myc-HMEC assay
Experimental: as §1, §2

Question: How did the EC50 turn out when COc1cc(C)c(Cl)cc1NC(=O)NCc1ccc2c(c1)C(=O)N(C1CCC(=O)NC1=O)C2 (stereo not drawn) [Compound 76] was run?
Answer: > 10000 nM

Question: Which EC50 does the source give for O=C1CCC(N2Cc3ccc(CNC(=O)NCCCc4ccccc4)cc3C2=O)C(=O)N1 (stereo not drawn) [Compound 70] here?
Answer: > 10000 nM

Question: With O=C1CCC(N2Cc3ccc(CNC(=O)Nc4ccc(F)c(Cl)c4)cc3C2=O)C(=O)N1 (stereo not drawn) [Compound 42] as the molecule, how does the EC50 read?
Answer: > 10000 nM

Question: O=C1CCC(N2Cc3ccc(CNC(=O)Nc4ccccc4F)cc3C2=O)C(=O)N1 (stereo not drawn) [Compound 48] was tested. Which EC50 did it give?
Answer: > 10000 nM

Question: Which EC50 does the source give for O=C1CCC(N2Cc3ccc(CNC(=O)Nc4ccccc4Cl)cc3C2=O)C(=O)N1 (stereo not drawn) [Compound 4] here?
Answer: > 10000 nM

Question: Which EC50 does the source give for COc1ccc(Cl)cc1NC(=O)NCc1ccc2c(c1)C(=O)N(C1CCC(=O)NC1=O)C2 (stereo not drawn) [Compound 30] here?
Answer: > 10000 nM

Target: GSPT1 (Homo sapiens, UniProt P15170+Q96SW2)
Assay: Immunofluorescence assay for GSPT1 degradation in CAL-51 cells
Type: cell-based
Set-up: CAL-51 cells were purchased from DSMZ (cat. Number ACC302); endogenous in cells; host or cells: CAL-51 (DSMZ ACC302)
Details: GSPT1 degradation, compound treatment 6 hours, read-out: DC50
Experimental: CAL-51 cells were purchased from DSMZ (cat. Number ACC302), sub-cultured in 90% Dulbecco's MEM (4.5 g/L glucose, Gibco 11965) +10% heat inactivated FBS (BioConcept, 2-01F136I) and incubated at 37° C., 5% CO2. For the assay, imaging microtiterplate Cell Carrier 96 Ultra (Perkin Elmer 6055302) were pre-coated with Fibronectin (Sigma F085, 300 at 0.2 μg/ml) in PBS (1000, Gibco 14190) for 45 min at room temperature, rinsed with PBS and CAL-51 cells (30K cells/well) were plated and let to adhere overnight. Cells were treated with compounds typically using a serial dilution ranging from 30 μM to 0.1 nM for 6 hours. Compounds were stored at 10 mM DMSO stocks. Vehicle (DMSO), positive (CC-885, 10 μM) and rescue controls (positive control plus 0.2 μM bortezomib) were also included at this stage. Cells were subsequently rinsed with PBS and fixed in 10% Formalin solution (50 μl, Sigma HT5011)) for 20 mins at room temperature. Following three consecutive PBS washes (100 μl), cells were permeabilized in 0.1% Triton X-100 in PBS (Sigma 93443, 50 μl) for 15 mins at room temperature. Following three further PBS washes, 50 μl blocking buffer (1% BSA, Sigma A4503, in PBS) was added for 45 min for signal-to-noise reduction. Primary antibody (human GSPT1, Sigma HPA052488) was diluted in blocking buffer (dil. 1/300, 35 μl/well) and incubated with the cells overnight at 4° C. After three PBS washes, Alexa-fluor 488 coupled secondary antibodies (Invitrogen, A32731, dil. 1/1000), Alexa-fluor 647-Phalloïdin (Invitrogen, A22287, dil. 1/200) and DAPI (Thermo, #62248, dil.1/1000) were diluted in blocking buffer and incubated with the samples for 2 hours at room temperature. After three final PBS washes, samples were conserved in 1000 PBS in the dark, until measurement. Image acquisition was performed on the Operetta High-Content Imager (Perkin-Elmer). Fluorescence intensity of Alexa-Fluor 488 (GSPT1), Alexa-Fluor 647 (Actin) and DAPI (Nucleus) were measured. For the determination of GSPT1 DC50 values, a custom algorithm implemented in the PerkinElmer image analysis software Harmony-Acapella® was developed. After user-defined setting of adjustment parameters, the analysis was run identically without human intervention for all image fields. DAPI staining of the nuclei was used to determine the location of cells using standard nuclei detection modules. Segmentation artifacts were removed by threshold-based filters for area, roundness and intensity. The outline of the cells was determined analogously from the sum of the normalized, smoothed DAPI and Actin channel, starting from each nucleus. The Alexa-Fluor 488 (GSPT1) signal intensity in each cell was finally measured, in order to obtain a Mean intensity per cell. GSPT1 degradation (DC50) was calculated after normalization to controls and data import in CDD vault Database, using non-linear regression. Activity for GSPT1 Degradation Table 3 assigns each compound a code indicating the ability for GSPT1 degradation: A, B or C. According to the code, A represents a DC50 value of ≤100 nM, B represents a DC50 value >100 nM and ≤300 nM and C represents a DC50 value of >300 nM.

GSPT1, sequence (P15170 whole entry): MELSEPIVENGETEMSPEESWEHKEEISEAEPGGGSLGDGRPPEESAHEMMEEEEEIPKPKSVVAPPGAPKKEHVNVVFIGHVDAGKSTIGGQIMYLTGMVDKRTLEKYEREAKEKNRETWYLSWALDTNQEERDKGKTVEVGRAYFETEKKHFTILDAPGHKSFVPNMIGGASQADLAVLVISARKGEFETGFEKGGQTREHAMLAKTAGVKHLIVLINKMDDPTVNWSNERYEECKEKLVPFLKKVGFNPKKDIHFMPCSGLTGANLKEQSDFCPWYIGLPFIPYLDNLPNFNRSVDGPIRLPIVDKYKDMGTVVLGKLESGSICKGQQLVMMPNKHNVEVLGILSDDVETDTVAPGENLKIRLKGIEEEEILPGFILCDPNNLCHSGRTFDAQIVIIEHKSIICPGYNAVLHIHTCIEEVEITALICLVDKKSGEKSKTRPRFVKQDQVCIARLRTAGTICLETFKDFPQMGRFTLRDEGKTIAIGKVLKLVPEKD
GSPT1, sequence (Q96SW2 whole entry): as the sequence (Q96SW2 whole entry) above
GSPT1, sequence (Q16531 2-1140 partner limits assumed): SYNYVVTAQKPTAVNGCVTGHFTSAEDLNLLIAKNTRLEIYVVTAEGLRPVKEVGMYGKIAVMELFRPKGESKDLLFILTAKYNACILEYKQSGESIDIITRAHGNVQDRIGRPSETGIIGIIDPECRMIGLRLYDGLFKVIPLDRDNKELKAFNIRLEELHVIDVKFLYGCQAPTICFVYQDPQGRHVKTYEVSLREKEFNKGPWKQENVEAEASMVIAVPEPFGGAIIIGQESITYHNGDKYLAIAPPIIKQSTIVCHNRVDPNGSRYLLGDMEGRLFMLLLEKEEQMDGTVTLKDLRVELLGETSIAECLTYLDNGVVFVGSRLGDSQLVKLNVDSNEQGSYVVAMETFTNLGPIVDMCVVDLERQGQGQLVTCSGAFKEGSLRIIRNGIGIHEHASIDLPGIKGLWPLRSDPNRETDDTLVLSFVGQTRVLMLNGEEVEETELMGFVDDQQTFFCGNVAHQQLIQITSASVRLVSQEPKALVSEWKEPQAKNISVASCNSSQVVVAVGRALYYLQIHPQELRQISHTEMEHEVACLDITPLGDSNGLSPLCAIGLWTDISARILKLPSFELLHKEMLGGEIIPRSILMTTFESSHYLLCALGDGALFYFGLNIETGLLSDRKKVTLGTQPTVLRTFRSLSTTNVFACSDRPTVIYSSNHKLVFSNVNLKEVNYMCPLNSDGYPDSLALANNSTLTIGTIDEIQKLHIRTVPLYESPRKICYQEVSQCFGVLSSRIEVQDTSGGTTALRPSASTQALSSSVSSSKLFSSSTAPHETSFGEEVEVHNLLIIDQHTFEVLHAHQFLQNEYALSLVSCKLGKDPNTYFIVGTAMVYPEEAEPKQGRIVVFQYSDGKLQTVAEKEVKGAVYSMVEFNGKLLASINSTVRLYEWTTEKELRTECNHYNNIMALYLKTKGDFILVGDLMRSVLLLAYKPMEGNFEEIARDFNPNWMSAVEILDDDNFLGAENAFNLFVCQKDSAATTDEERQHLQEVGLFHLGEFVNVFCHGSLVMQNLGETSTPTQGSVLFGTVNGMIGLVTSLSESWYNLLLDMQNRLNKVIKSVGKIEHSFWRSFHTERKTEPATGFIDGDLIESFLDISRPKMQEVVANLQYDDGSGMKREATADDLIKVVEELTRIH

Question: For O=C1CCC(N2Cc3ccc(CNC(=O)Nc4ccc(F)c(Cl)c4)cc3C2=O)C(=O)N1 (stereo not drawn) [Compound 42], which DC50 is on record?
Answer: 253 nM

Same assay, conditions: compound treatment 6 hours, read-out: Code: activity for GSPT1 degradation (DC50)

Question: Which DC50 does the source give for COc1cc(C)c(Cl)cc1NC(=O)NCc1ccc2c(c1)C(=O)N(C1CCC(=O)NC1=O)C2 (stereo not drawn) [Compound 76] here?
Answer: ≤ 100 nM

Question: O=C1CCC(N2Cc3ccc(CNC(=O)NCCCc4ccccc4)cc3C2=O)C(=O)N1 (stereo not drawn) [Compound 70] was tested. Which DC50 did it give?
Answer: > 300 nM

Question: Which DC50 does the source give for O=C1CCC(N2Cc3ccc(CNC(=O)Nc4ccc(F)c(Cl)c4)cc3C2=O)C(=O)N1 (stereo not drawn) [Compound 42] here?
Answer: 100 to 300 nM

Question: With O=C1CCC(N2Cc3ccc(CNC(=O)Nc4ccccc4F)cc3C2=O)C(=O)N1 (stereo not drawn) [Compound 48] as the molecule, how does the DC50 read?
Answer: > 300 nM

Question: O=C1CCC(N2Cc3ccc(CNC(=O)Nc4ccccc4Cl)cc3C2=O)C(=O)N1 (stereo not drawn) [Compound 4] was tested. Which DC50 did it give?
Answer: > 300 nM

Question: Which DC50 does the source give for COc1ccc(Cl)cc1NC(=O)NCc1ccc2c(c1)C(=O)N(C1CCC(=O)NC1=O)C2 (stereo not drawn) [Compound 30] here?
Answer: ≤ 100 nM
